{"source": "patent US20210000953A1", "about": "“USE OF IMMUNE CHECKPOINT INHIBITORS IN CENTRAL NERVOUS SYSTEMS NEOPLASMS” (Bristol-Myers Squibb Company, priority 2014, published 2021)", "key": {"[1]": {"conditions": "Phase 1 study of nivolumab; cited from earlier work"}, "PD-1": {"biological_target": "T1, PD-1 (Homo sapiens, UniProt Q15116)", "T1 construct": "Receptor-occupancy data from 15 subjects who received 0.3 mg/kg to 10 mg/kg dosing with nivolumab; endogenous in cells", "T1 sequence (Q15116 25-288)": "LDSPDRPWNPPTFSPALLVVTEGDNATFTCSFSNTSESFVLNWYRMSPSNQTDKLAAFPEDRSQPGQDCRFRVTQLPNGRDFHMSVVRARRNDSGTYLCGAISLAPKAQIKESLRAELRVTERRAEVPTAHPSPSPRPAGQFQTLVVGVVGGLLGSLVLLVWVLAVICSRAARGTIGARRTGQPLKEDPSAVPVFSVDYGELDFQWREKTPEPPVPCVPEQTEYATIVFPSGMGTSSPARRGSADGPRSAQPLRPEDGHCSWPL", "test": "PD-1 receptor occupancy in subjects dosed with nivolumab", "type": "in vivo", "conditions": "15 subjects, 0.3 mg/kg to 10 mg/kg, across all doses", "procedure": "When used in combinations with other anti-cancer agents, the dosage of an anti-PD-1 antibody can be lowered compared to the monotherapy dose. Dosages of nivolumab that are lower than the typical 3 mg/kg, but not less than 0.001 mg/kg, are subtherapeutic dosages. The subtherapeutic doses of an anti-PD-1 antibody used in the methods herein are higher than 0.001 mg/kg and lower than 3 mg/kg. In some embodiments, a subtherapeutic dose is about 0.001 mg/kg-about 1 mg/kg, about 0.01 mg/kg-about 1 mg/kg, about 0.1 mg/kg-about 1 mg/kg, or about 0.001 mg/kg-about 0.1 mg/kg body weight. In some embodiments, the subtherapeutic dose is at least about 0.001 mg/kg, at least about 0.005 mg/kg, at least about 0.01 mg/kg, at least about 0.05 mg/kg, at least about 0.1 mg/kg, at least about 0.5 mg/kg, or at least about 1.0 mg/kg body weight. Receptor-occupancy data from 15 subjects who received 0.3 mg/kg to 10 mg/kg dosing with nivolumab indicate that PD-1 occupancy appears to be dose-independent in this dose range. Across all doses, the mean occupancy rate was 85% (range, 70% to 97%), with a mean plateau occupancy of 72% (range, 59% to 81%). In some embodiments, 0.3 mg/kg dosing can allow for sufficient exposure to lead to maximal biologic activity."}, "Tregs": {"system": "Tregs", "test": "Cytokine release from sorted Tregs (CD4+CD25+CD127−) ± stimulation", "type": "cell-based, human", "conditions": "GBM patients on nivolumab treatment", "procedure": "(§1) Analyses were performed on peripheral blood drawn from patients at predetermined time points (FIG. 13) and tumor tissue samples were obtained if resection was performed at the time of progression or suspected progression. Baseline and on-treatment samples were obtained from patients (n=20) randomized 1:1 to receive either nivolumab 3 mg/kg every 2 weeks (Q2W) or nivolumab 1 mg/kg+ipilimumab 3 mg/kg every 3 weeks followed by nivolumab 3 mg/kg Q2W (FIG. 13). Phenotypic, maturation, and proliferation analyses were performed using flow cytometry with population-specific antibody panels (Table 11). Cytokine release analyses were carried out on supernatants from sorted Tregs (CD4+CD25+CD127−)±stimulation (PMA+ionomycin). The anti-tumor-associated antigen (TAA) activity of peripheral blood mononuclear cells (PBMCs) and tumor-infiltrating lymphocytes (TILs) was evaluated. Cells were stimulated with interleukin (IL)-2, IL-15, and TAA peptides; after 9 days of culture with IL-2 and IL-15, cells were restimulated with IL-2, IL-15, and TAA peptides. Production of interferon (IFN)γ/granzyme B was assayed using a dual-color FluoroSpot assay."}, "[2]": {"system": "subjects with recurrent GBM", "test": "Study CA209143 safety lead-in cohorts (Cohort 1, 1b): safety, tolerability and patient disposition", "type": "in vivo, human", "procedure": "This is the first study examining monoclonal antibodies targeting immune checkpoint inhibitors in subjects with recurrent GBM. To ensure that nivolumab monotherapy and nivolumab in combination with ipilimumab are tolerable, safety lead-in cohorts (Cohort 1, 1b) evaluating the tolerability of two different treatment regimens were initiated prior to advancing a treatment arm into Cohort 2. Cohort 1 examined in a randomized fashion the safety and tolerability of nivolumab monotherapy dosed at 3 mg/kg every 2 weeks or nivolumab 1 mg/kg+ipilimumab 3 mg/kg every 3 weeks for four doses, then nivolumab 3 mg/kg every 2 weeks thereafter. Cohort 1b examined, in a non-randomized fashion, the safety and tolerability of nivolumab 3 mg/kg+ipilimumab 1 mg/kg every 3 weeks for four doses, then nivolumab 3 mg/kg every 2 weeks thereafter.\nA randomized, open-label, multicenter, phase 3 study of nivolumab monotherapy versus bevacizumab and a safety study of nivolumab and nivolumab in combination with ipilimumab is conducted in adult (>18 years) subjects with a first recurrence of GBM after treatment with radiotherapy and temozolomide. Since the use of nivolumab and ipilimumab has not previously been studied in subjects with GBM, a safety lead-in (Cohort 1) consisting of approximately 10 subjects in each of two treatment arms are enrolled and randomized to treatment with either Arm N (nivolumab monotherapy) or Arm N+I (nivolumab combined with ipilimumab). Tolerability and safety of a treatment arm is determined after all subjects in the arm completed four doses or discontinued dosing prior to completing four doses. A safety evaluation of Cohort 1 is conducted for each arm based on criteria described herein.\nSubjects will be evaluated for safety if they have received any study drug. […]\nThe causal relationship to study drug is determined by a physician and should be used to assess all adverse events (AE). […]\nTolerability and safety of a treatment arm was determined after all subjects per arm have completed four doses or discontinued dosing prior to completing four doses. […]"}, "TILs and PBMCs": {"system": "TILs and PBMCs", "test": "Anti-tumor-associated antigen (TAA) activity, dual-color IFNγ/granzyme B FluoroSpot assay", "type": "cell-based, human", "conditions": "cells isolated from patients treated with nivolumab monotherapy (FIG. 17)", "procedure": "as §1"}}, "note": "Entries after “also recorded” stand apart in the source; their conditions may differ.", "data": [{"substance": "nivolumab", "values": [{"measurement": "Subjects with apparent progression of disease before objective response and/or stable disease", "setting": "[1]", "result": "approximately 10%"}, {"measurement": "Mean plateau PD-1 occupancy", "setting": "PD-1; range 59% to 81%", "result": 72, "unit": "%"}, {"measurement": "Mean PD-1 occupancy rate", "setting": "PD-1; range 70% to 97%", "result": 85, "unit": "%"}, {"measurement": "Production of IFNγ by Tregs", "setting": "Tregs", "result": "increase production of IFNγ"}, {"measurement": "Patients in the study: Died", "setting": "[2]; Cohort 1, N = 10 per arm, same regimens, deaths in both arms were due to disease, cutoff Sep. 9, 2015", "result": "7 (70) n (%)"}, {"measurement": "Deaths due to drug toxicity", "setting": "[2]; Cohort 1, nivolumab 3 mg/kg monotherapy arm and nivolumab 1 mg/kg + ipilimumab 3 mg/kg combination arm, N = 10 each", "result": "no deaths due to drug toxicity"}, {"measurement": "Reason for not continuing on treatment: Disease Progression", "setting": "[2]; Cohort 1, recurrent GBM, N = 10 per arm, nivolumab 3 mg/kg Q2W or nivolumab 1 mg/kg + ipilimumab 3 mg/kg Q3W x4 then nivolumab 3 mg/kg Q2W, cutoff Sep. 9, 2015", "result": "9 (90) n (%)"}, {"measurement": "Anti-TAA activity of TILs and PBMCs upon restimulation", "setting": "TILs and PBMCs", "result": "increased anti-TAA activity; also recorded: functional responses to TAAs in both TILs and PBMCs"}]}]}
